From PubChem BioAssay (NCI)
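Where inhibition never reached the appropriate level, the endpoint shown equals the highest concentration tested. Otherwise, values were interpolated linearly from a five-concentration, 48-hour dose response in 96-well plates. GI50 marks 50% less growth. TGI: concentration producing complete growth inhibition.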

Legend:
Experiment in all cases: NCI tumour cell line growth inhibition, 48 h
BT-549 breast = system: BT-549 breast
COLO 205 colon = system: COLO 205 colon
HCT-116 colon = system: HCT-116 colon
OVCAR-3 ovarian = system: OVCAR-3 ovarian
OVCAR-8 ovarian = system: OVCAR-8 ovarian
SNB-19 CNS = system: SNB-19 CNS
SW-620 colon = system: SW-620 colon
U251 CNS = system: U251 CNS
UACC-62 melanoma = system: UACC-62 melanoma
SK-MEL-2 melanoma = system: SK-MEL-2 melanoma

| Compound | GI50 (BT-549 breast) | TGI (BT-549 breast) | GI50 (COLO 205 colon) | TGI (COLO 205 colon) | GI50 (HCT-116 colon) | TGI (HCT-116 colon) | GI50 (OVCAR-3 ovarian) | TGI (OVCAR-3 ovarian) | GI50 (OVCAR-8 ovarian) | TGI (OVCAR-8 ovarian) | GI50 (SNB-19 CNS) | TGI (SNB-19 CNS) | GI50 (SW-620 colon) | TGI (SW-620 colon) | GI50 (U251 CNS) | TGI (U251 CNS) | GI50 (UACC-62 melanoma) | TGI (UACC-62 melanoma) | TGI (SK-MEL-2 melanoma) |
| --- | --- | --- | --- | --- | --- | --- | --- | --- | --- | --- | --- | --- | --- | --- | --- | --- | --- | --- | --- |
| O=c1c(-c2ccccc2)coc2cc(OC/C(=N/O)c3ccccc3)ccc12 | 29.8 µM | > 100 µM | 26.5 µM | 72.6 µM | 11.2 µM | 68.6 µM | 24.7 µM | 60.1 µM | 17.3 µM | 50.8 µM | 23.2 µM | 86.9 µM | 20.2 µM | 64.8 µM | 21.4 µM | 56.1 µM | 15.2 µM | 31.4 µM | – |
| CN(C)CC/[N+]([O-])=C(/c1ccccc1)C12CC3CC(CC(C3)C1)C2 | – | – | – | 30.3 µM | – | 32 µM | – | 27.8 µM | – | 31.7 µM | – | 37.5 µM | – | – | – | 29.7 µM | – | 27.8 µM | 34.9 µM |
| O=C(O)CCc1nn2c(nc1=O)sc1ccc3ccccc3c12 | – | – | – | > 100 µM | – | > 100 µM | – | > 100 µM | – | > 100 µM | – | > 100 µM | – | > 100 µM | – | > 100 µM | – | > 100 µM | – |
| CC(=O)C1=C(O)CC2CC3c4[nH]c5ccccc5c4CCN3CC2C1 (configuration not stated) | – | – | – | > 100 µM | – | > 100 µM | – | > 100 µM | – | > 100 µM | – | > 100 µM | – | > 100 µM | – | > 100 µM | – | – | > 100 µM |
| Cc1cccc(C)c1NC(=O)C(=O)Nn1c(NN)nc2ccccc2c1=O | – | – | – | > 100 µM | – | > 100 µM | – | > 100 µM | – | > 100 µM | – | > 100 µM | – | > 100 µM | – | > 100 µM | – | > 100 µM | > 100 µM |
| N#CC1(C#N)C(C#N)(C#N)C12CCCCCC2 | – | – | – | 33.7 µM | – | 17.5 µM | – | 29.7 µM | – | 26.7 µM | – | > 87.8 µM | – | 5.29 µM | – | 20.5 µM | – | 18.4 µM | 18.4 µM |
| Cc1ccc(O)c(NC(=O)c2ccc(CNc3ccnc(C(F)(F)F)c3)cc2)c1 | 3.48 µM | 28.4 µM | 5.57 µM | 20.1 µM | 13.7 µM | 37.4 µM | 11.3 µM | 28.2 µM | 15.9 µM | > 100 µM | 6.15 µM | 48 µM | 8.7 µM | 42.4 µM | 23.5 µM | > 100 µM | 1.07 µM | 13.4 µM | – |
| COc1ccc(C2ON(c3cccc(C)n3)CC=C2C)cc1 (configuration not stated) | – | – | – | > 100 µM | – | – | – | > 100 µM | – | > 100 µM | – | > 100 µM | – | > 100 µM | – | > 100 µM | – | > 100 µM | 69.4 µM |
| OCC#Cc1ccccc1C#CCCCCCC#Cc1ccccc1C#CCO | 19.8 µM | 39.8 µM | 22.8 µM | 72.2 µM | 12.7 µM | 25.2 µM | 16 µM | 32.9 µM | 17.1 µM | 42.1 µM | 34.8 µM | > 100 µM | 21.9 µM | 43.3 µM | 20.9 µM | 36 µM | 17.9 µM | 32.3 µM | – |
| NC(N)=NS(=O)(=O)c1ccc(Nc2c3ccccc3nc3c(C(=O)Nc4ccc(S(N)(=O)=O)cc4)cccc23)cc1 | – | – | – | > 100 µM | – | > 100 µM | – | > 100 µM | – | > 100 µM | – | > 100 µM | – | > 100 µM | – | > 100 µM | – | > 100 µM | > 100 µM |
| C=CCC1C(=O)CC2(C)CC(=O)C(CC=C)C12C (configuration not stated) | – | – | – | > 100 µM | – | > 100 µM | – | > 100 µM | – | > 100 µM | – | > 100 µM | – | > 100 µM | – | > 100 µM | – | > 100 µM | – |
| Cn1cc(C(=O)C[n+]2ccccc2)c2ccccc21 | – | – | – | > 100 µM | – | > 100 µM | – | > 100 µM | – | > 100 µM | – | > 100 µM | – | > 100 µM | – | – | – | > 100 µM | > 100 µM |
| O=c1c2cc(Cl)ccc2sc2cccc(Cl)c12 | – | – | – | > 100 µM | – | > 100 µM | – | > 100 µM | – | > 100 µM | – | > 100 µM | – | > 100 µM | – | > 100 µM | – | > 100 µM | > 100 µM |
| Clc1ccc(C(n2cc(Br)cn2)n2cc(Br)cn2)cc1 | – | – | – | 33.8 µM | – | – | – | 28 µM | – | 36.5 µM | – | – | – | 34.6 µM | – | 30.8 µM | – | 28.7 µM | 33.2 µM |
| CCOc1ccc2nc(NC(=O)C(=O)C(c3cnc4ccccc4n3)[N+](=O)[O-])sc2c1 (configuration not stated) | – | > 100 µM | – | – | – | > 100 µM | – | > 100 µM | – | > 100 µM | – | > 100 µM | – | – | – | – | – | > 100 µM | > 100 µM |
| CCN(CC)c1ccc(N=Nc2ccc(-c3nc4ccc[n+](C)c4o3)cc2)cc1 | – | – | – | 5.41 µM | – | 16.3 µM | – | 21.8 µM | – | 18.8 µM | – | 26.1 µM | – | 16.2 µM | – | 16.6 µM | – | 22.6 µM | 25.5 µM |
| COc1cccc(NC(=O)/C(Cc2nc3ccccc3nc2C)=N/NC(=O)C[n+]2ccccc2)c1 | – | – | – | 44.6 µM | – | > 100 µM | – | > 100 µM | – | > 100 µM | – | > 100 µM | – | 25.6 µM | – | 39.8 µM | – | > 100 µM | > 100 µM |
| O=C(NC12CC3CC(CC(C3)C1)C2)C(=O)c1c[nH]c2ccccc12 | – | – | – | 33.5 µM | – | 30.5 µM | – | 31 µM | – | – | – | 32.3 µM | – | – | – | 26.7 µM | – | 26.5 µM | 32.3 µM |
| CCOC(=O)c1[nH]c(COC(C)=O)c2c1CCCCCCCCCC2 | – | – | – | > 100 µM | – | > 100 µM | – | > 100 µM | – | > 100 µM | – | > 100 µM | – | > 100 µM | – | > 100 µM | – | > 100 µM | > 100 µM |
| COC(=O)Nc1nc2ccc(Br)cc2[nH]1 | – | – | – | > 100 µM | – | > 100 µM | – | 82.5 µM | – | > 100 µM | – | – | – | > 100 µM | – | 87 µM | – | > 100 µM | 62.6 µM |
| CC1OC(n2cc(F)c(=O)[nH]c2=O)C=CC1=O (configuration not stated) | – | – | – | 89.1 µM | – | 29.8 µM | – | 29.6 µM | – | 47.9 µM | – | 34.8 µM | – | 38.6 µM | – | 27.9 µM | – | 32.4 µM | 28.9 µM |
| CN(C)c1ccc(/C=c2\sc3nc4ccccc4n3c2=O)cc1 | – | – | – | > 100 µM | – | > 100 µM | – | > 100 µM | – | > 100 µM | – | > 100 µM | – | > 100 µM | – | > 100 µM | – | > 100 µM | > 100 µM |
